Laboratory results taken from patent publication US6890946B2, “Use of parthenolide to inhibit cancer” (Indiana University Research and Technology Corporation, priority 1999, dated 2005).
Values belong to the compound of their own block, whether it stands above or below them. Peptide text beside a SMILES is read from it. * marks the point of attachment. Cbz = O=C(OCc1ccccc1)*

Legend:
[1] = system: NF-κB DNA binding activity in MDA-MB-231 cells; experiment: EMSA of NF-κB DNA binding activity in MDA-MB-231 cells; conditions: parthenolide 1, 2 and 5 μM for 3 h
Experimental: (§2) Electrophoretic Mobility Shift Assays (EMSAs). […] Cells were collected by trypsinization, washed in phosphate-buffered saline and resuspended in 125 μl of 2 μgs/ml RNase and 300 μl of propidium iodide containing buffer (50 μg/ml propidium iodide, 1 mg/ml sodium citrate, 0.03% NP40). The amount of propidium iodide incorporated was determined by FAScan analysis and the cell cycle distribution was determined using ModFit computer Software. Cell cycle distribution analysis was performed in a single blinded manner. Only diploid cells were considered while calculating the percentage of cells at each phase of cell cycle. • H. Statistical Analysis.

[2] = system: IκBαSR6 cells; experiment: flow cytometry cell cycle distribution, IκBαSR6 cells; conditions: 5 nM paclitaxel, IκBαSR6, diploid cells only
Experimental: (§3) Apoptosis was measured by a histone-ELISA (Roche Diagnostics, Indianapolis, Ind.). […] Histone-DNA complexes in the supernatant were detected by ELISA. For the PARP cleavage assay, 5×10^5 cells were exposed to the indicated drugs for 24 h. […] Cells were collected by trypsinization, washed in phosphate-buffered saline and resuspended in 125 μl of 2 μgs/ml RNase and 300 μl of propidium iodide containing buffer (50 μg/ml propidium iodide, 1 mg/ml sodium citrate, 0.03% NP40). The amount of propidium iodide incorporated was determined by FAScan analysis and the cell cycle distribution was determined using ModFit computer Software. Cell cycle distribution analysis was performed in a single blinded manner. Only diploid cells were considered while calculating the percentage of cells at each phase of cell cycle. • H. Statistical Analysis. In synergy experiments, dose response curves for single agents were generated first.
(§4) Only diploid cells were considered while calculating the percentage of cells in different phases of the cell cycle.

[3] = system: LxSN11 cells; experiment: cell death ELISA (apoptosis), LxSN11 cells; conditions: 18 h of paclitaxel treatment, culture supernatants
Experimental: Apoptosis was measured by ELISA.
(§5) To avoid loss of hypodiploid or other damaged cells during processing, the assay was performed with cell culture supernatants.

[4] = system: p65−/− fibroblasts; experiment: cell cycle progression of p65−/− fibroblasts; conditions: for p65−/− G0/G1 / p65−/− S / p65−/− G2/M: 18 h
Experimental: as §2

[5] = system: HBL100 cells; experiment: cell cycle distribution analysis, HBL100 cells; type: cell-based; conditions: HBL100 (data not shown)
Text: (§1) The invention will be further described by reference to the following detailed examples wherein the following materials and methods were employed: • A. Breast Cancer Cell Lines. […] Electrophoretic Mobility Shift Assays (EMSAs). […] Antibodies for supershift assays were purchased from Santa Cruz Biotechnology (CA) or Upstate Biotechnology (NY). • D. Western Blotting. […] IκBα and Mn-SOD antibodies were purchased from Santa Cruz Biotechnology (CA) and Upstate Biotechnology, respectively. • E. Northern Blotting and RNase Protection. […] Twenty μgs of RNA were subjected to RNase protection using the hAPO-5 probe (PharMingen, San Diego, Calif.) as described by the manufacturers. • F. Drug Treatment, Cell Death Assays, Apoptosis Assay and PARP Cleavage. […] Apoptosis was measured by a histone-ELISA (Roche Diagnostics, Indianapolis, Ind.). […] Histone-DNA complexes in the supernatant were detected by ELISA. For the PARP cleavage assay, 5×10^5 cells were exposed to the indicated drugs for 24 h. […] Cells were collected by trypsinization, washed in phosphate-buffered saline and resuspended in 125 μl of 2 μgs/ml RNase and 300 μl of propidium iodide containing buffer (50 μg/ml propidium iodide, 1 mg/ml sodium citrate, 0.03% NP40). The amount of propidium iodide incorporated was determined by FAScan analysis and the cell cycle distribution was determined using ModFit computer Software. […]

[6] = system: LxSN11 cells; experiment: flow cytometry cell cycle distribution, LxSN11 cells; conditions: paclitaxel increased from 3 nM to 5 nM
Experimental: as §3, §4

[7] = system: PARP cleavage in HBL100 cells; experiment: PARP cleavage Western blot, HBL100 cells; type: cell-based; conditions: HBL100, 24 h, single agents: paclitaxel 1 nM and 5 nM, parthenolide 0.1 μM and 0.5 μM
Text: as §1

[8] = system: HBL100 cells; experiment: MTS cell survival assay, HBL100 cells; type: cell-based; conditions: Homo sapiens, HBL-100, HBL100, 18 h, single agent, read-out: Half-maximal growth-inhibitory concentration (IC50)
[9] = system: wild type fibroblasts; experiment: cell cycle progression of wild type fibroblasts; conditions: for Wild type G0/G1 / Wild type G2/M / Wild type S: 18 h
Experimental: as §2

[10] = system: IκBαSR10 cells; experiment: cell death ELISA (apoptosis), IκBαSR10 cells; conditions: 18 h of paclitaxel treatment, culture supernatants
Experimental: Apoptosis was measured by ELISA.
as §5

[11] = system: MDA-MB-231 cells; experiment: MTS cell survival assay, MDA-MB-231 cells; type: cell-based
Text: as §1

[12] = system: LxSN11 and IκBαSR cells; experiment: flow cytometry cell cycle analysis, all cell types (LxSN11 and IκBαSR clones of MDA-MB-231); conditions: 3 nM paclitaxel
Experimental: as §3, §4

[13] = system: NF-κB DNA binding in HUVECs; experiment: electromobility gel shift assay of NF-κB DNA binding in HUVECs; conditions: three hours, bFGF 50 ng/mL, VEGF 100 ng/mL, rhuMAb VEGF 10 mg/mL
Experimental: HUVECs were plated on 100 mm plates and harvested in an exponential growth phase. […] The mixture was then electrophoresed. Specific NF-κB binding to DNA was identified by the presence of a signal seen at autoradiography. The protein-DNA complex was slower to migrate whereas unbound DNA and protein migrated off the gel.

[14] = system: breast cancer; conditions: cited from earlier work

Compound: CC(C)(C)c1ccc(S(=O)(=O)/C=C/C#N)cc1 [Bay 11-7085]
ability to inhibit NF-κB DNA binding activity [1]: inhibited

Compound: COc1cc(/C=C/C(=O)CC(=O)/C=C/c2ccc(O)c(OC)c2)ccc1O [Curcumin]
ability to inhibit NF-κB DNA binding activity [1]: Only parthenolide, MG132 and Bay 11-7085 inhibited

Compound: CC(C)C[C@@H](C=O)NC(=O)[C@H](CC(C)C)NC(=O)[C@H](CC(C)C)NC(=O)OCc1ccccc1 [MG132] (Cbz-Leu-Leu-Leu-aldehyde)
ability to inhibit NF-κB DNA binding activity [1]: inhibited

Compound: CC(=O)N[C@@H](CS)C(=O)O [N-acetyl cysteine]
ability to inhibit NF-κB DNA binding activity [1]: Only parthenolide, MG132 and Bay 11-7085 inhibited

Compound: O=C(O[C@@H]1Cc2c(O)cc(O)cc2O[C@@H]1c1cc(O)c(O)c(O)c1)c1cc(O)c(O)c(O)c1 [epigallocatechin gallate]
ability to inhibit NF-κB DNA binding activity [1]: Only parthenolide, MG132 and Bay 11-7085 inhibited

Compound: CC(=O)O[C@H]1C(=O)[C@@]2(C)[C@H]([C@H](OC(=O)c3ccccc3)[C@]3(O)C[C@H](OC(=O)[C@H](O)[C@@H](NC(=O)c4ccccc4)c4ccccc4)C(C)=C1C3(C)C)[C@]1(OC(C)=O)CO[C@@H]1C[C@@H]2O [paclitaxel]
percentage of cells at G2/M [2]: 70.37±14.9%
apoptosis by cell death ELISA [3]: only a marginal increase in apoptosis
effect on cell cycle distribution ([4]; p65−/− fibroblasts): had no effect
p65−/− G0/G1 ([4]; paclitaxel 1 nM): 47 ± 2
p65−/− S ([4]; paclitaxel 1 nM): 53 ± 1
p65−/− G0/G1 ([4]; paclitaxel 3 nM): 39 ± 6
p65−/− G2/M ([4]; paclitaxel 3 nM): 1
p65−/− S ([4]; paclitaxel 3 nM): 61 ± 7
p65−/− G0/G1 ([4]; paclitaxel 5 nM): 47 ± 2
p65−/− G2/M ([4]; paclitaxel 5 nM): 14
p65−/− S ([4]; paclitaxel 5 nM): 46 ± 6
p65−/− G0/G1 ([4]; paclitaxel 10 nM): 47 ± 2
p65−/− G2/M ([4]; paclitaxel 10 nM): 6 ± 4
p65−/− S ([4]; paclitaxel 10 nM): 48 ± 6
G2/M arrest [5]: arrested at G2/M
cell cycle distribution pattern [6]: did not alter the cell cycle distribution pattern
PARP cleavage product [7]: No PARP cleavage product was observed
IC50 [8]: 10 nM
Wild type G0/G1 ([9]; paclitaxel 1 nM): 68 ± 4
Wild type G2/M ([9]; paclitaxel 1 nM): 17 ± 8
Wild type S ([9]; paclitaxel 1 nM): 20 ± 4
Wild type G0/G1 ([9]; paclitaxel 3 nM): 70 ± 3
Wild type G2/M ([9]; paclitaxel 3 nM): 14 ± 5
Wild type S ([9]; paclitaxel 3 nM): 16 ± 1
Wild type G0/G1 ([9]; paclitaxel 5 nM): 71 ± 3
Wild type G2/M ([9]; paclitaxel 5 nM): 17 ± 6
Wild type S ([9]; paclitaxel 5 nM): 16 ± 4
Wild type G0/G1 ([9]; paclitaxel 10 nM): 73 ± 2
Wild type G2/M ([9]; paclitaxel 10 nM): 16 ± 6
Wild type S ([9]; paclitaxel 10 nM): 15 ± 2
effect on cell cycle distribution ([9]; wild type fibroblasts): had no effect
apoptosis by cell death ELISA [10]: substantial increase in apoptotic death
IC50 ([11]; Homo sapiens, MDA-MB-231, 18 h, MTS, single agent): > 30 nM
cells killed ([11]; MDA-MB-231, 30 nM or higher concentrations of paclitaxel): 30%
hypodiploid cells [12]: approximately 30%

Compound: CC(=O)CCCCn1c(=O)c2c(ncn2C)n(C)c1=O [pentoxyphylline]
ability to inhibit NF-κB DNA binding activity [1]: Only parthenolide, MG132 and Bay 11-7085 inhibited

effect on NF-κB DNA binding [13]: did not alter baseline NF-κB DNA binding
Compound: VEGF

effect on NF-κB DNA binding [13]: induced greater DNA binding than VEGF
Compound: bFGF: basic Fibroblast Growth Factor (R & D Systems) added to stimulate HUVECs

effect on NF-κB DNA binding [13]: did not alter NF-κB DNA binding
Compound: rhuMAb VEGF: anti-angiogenic agent provided by Genentech, used in the electromobility gel shift assay
patients with tumor regression [14]: 20%
